This is an account of results in patent US20250064904A1 (priority 2019, published 2025).

Assay [1] has as its system salivary glands (submandibular, parotid). More on the design: species or system human. The settings on record: in vivo.
Another assay deals with salivary glands. The settings on record: in vivo; cited from earlier work.

botulinum toxin type A: in assay [1], the “uptake of 18F-PSMA in the treated glands” value is “significantly reduced”, the “uptake of 68Ga-PSMA in the glands treated with botulinum toxin” value is on record as “significantly reduced”, the “uptake of 177Lu-PSMA in the treated glands” value is listed as “significantly reduced” and the “uptake of 225Ac-PSMA-617 in the treated glands” value is given as “significantly reduced”. Moreover, the onset of action entry in the assay with salivary glands is listed as “around six”.
